Here are results for 85 molecules from ChEMBL document CHEMBL3988442, “University of Dundee, Small-Polar-MMV Screening Library” (2021).

Assay [1] can be described thus: microbe, parasite or virus in culture. Particulars: Mycobacterium tuberculosis, 72 h, read-out: pIC50 (converted).
The nature of assay [2]: microbe, parasite or virus in culture. The conditions noted are these: Mycobacterium tuberculosis, 96 h, read-out: pIC50 (converted).

Bounds are passed on as bounds.

On to `CN(C)S(=O)(=O)NC(c1ccccc1)c1ccccc1`, for which the IC50 is 195 µM in assay [1] and more than 501 µM in assay [2].
With `NC(CN1CCOCC1)c1ccccc1` (stereo not given), the IC50 in assay [1] and in assay [2] was more than 501 µM throughout.
`Cc1cccc2[nH]cc(CCN)c12`: the IC50 in assay [1] was 124 µM; in assay [2] it was 229 µM.
Turning to `O=C(CNC1CC1)NCCc1ccc(F)cc1`, the IC50 in assay [1] is 31.5 µM; in assay [2] it was 63.6 µM.
With `CNS(=O)(=O)c1ccc(C(=O)Nc2ccc(F)cc2)o1`, the IC50 in assay [1] and in assay [2] was more than 501 µM throughout.
Turning to `O=C1CCC(Nc2nc(-c3ccccc3)ns2)CN1` (stereo not given), the IC50 was more than 501 µM in assay [1] and 286 µM in assay [2].
For `COc1cccc(S(=O)(=O)CCN(C)CCO)c1`, in that order: 109 µM and 352 µM.
Consider `CC(NCc1cccc2c1OCCO2)c1ccncc1` (stereo not given), for which the results for the IC50 in assay [1] and in assay [2] were 99.1 µM and 153 µM, respectively.
For `O=C(Nc1cccc(CO)n1)Nc1ccccc1Cl`, in that order: 246 µM and more than 501 µM.
For `Nc1cc(-c2cccnc2)on1`, in that order: 284 µM and more than 501 µM.
With `COc1cccc(-c2ccc(CNS(N)(=O)=O)cc2)c1`, the IC50 in assay [1] is 159 µM; in assay [2], 283 µM.
Turning to `Cc1csc(NC(=O)CNC(=O)c2cccs2)n1`, the IC50 in assay [1] is 185 µM; in assay [2], more than 501 µM.
For `COc1cc(CN)cc(Br)c1OC`, in that order: 78.5 µM and more than 501 µM.
In the same order, the values of `Nc1nccnc1C(=O)NCc1ccccc1` are 294 µM and more than 501 µM.
In the same order, the values of `CCc1nc(C)c(C(=O)NCC2CCS(=O)(=O)CC2)o1` are more than 501 µM and more than 501 µM.
`Cc1cnc(C(=O)NCCCc2ccccn2)cn1`: the IC50 in assay [1] is 111 µM; in assay [2], more than 501 µM.
For `C=C(Br)CN1CCN(CCNC(=O)C2CCC2)CC1`, in that order: 278 µM and more than 501 µM.
For the molecule `CNC(=O)C(C)(C)Oc1cccc(Cl)c1`, the IC50 in assay [1] and in assay [2] was more than 501 µM throughout.
On to `NS(=O)(=O)c1cccc2c1CCCN2Cc1nccs1`, for which the IC50 in assay [1] and in assay [2] was more than 501 µM in each case.
`NC(=O)CSc1nc(-c2ccc(Br)cc2)c[nH]1`: the figures for the IC50 in assay [1] and in assay [2] were 160 µM and 260 µM, respectively.
In the same order, the values of `COc1cccc(-n2nnc(C(=O)NC3CC3)c2C)c1` are 232 µM and 209 µM.
In the same order, the values of `CC(NC(=O)CNc1ccccc1F)c1ccco1` (stereo not given) are 51.7 µM and 4.24 µM.
In the same order, the values of `COc1cc(C(=O)NC[C@@H](O)c2ccc(C)cc2)on1` are 488 µM and more than 501 µM.
Take `NC1CCN(c2ncccc2F)C1` (stereo not given): the IC50 was 462 µM in assay [1] and more than 501 µM in assay [2].
In the same order, the values of `CCc1nnc(CN2CCOC3(CCCC3)C2)o1` are more than 501 µM and more than 501 µM.
For the molecule `CC(C)(C)OC(=O)NC1CC2(CNC2)C1`, the values for the IC50 in assay [1] and in assay [2] were 244 µM and more than 501 µM, respectively.
In the same order, the values of `COc1ccc(NC(=O)COc2ccccc2F)cn1` are 213 µM and more than 501 µM.
Turning to `CCCNC(=O)CNc1cc(F)c(OC)c(F)c1`, the IC50 is 166 µM in assay [1] and 326 µM in assay [2].
In the same order, the values of `CC(=O)NCCCNCc1cccc(C#N)c1` are more than 501 µM and more than 501 µM.
For `CC(=O)NCc1ccc(C(=O)CSc2ccccn2)s1`, the IC50 in assay [1] and in assay [2] was more than 501 µM in each case.
On to `CSCc1ccc(C(=O)N2CC(CC(N)=O)C2)cc1`, for which the IC50 in assay [1] and in assay [2] was more than 501 µM in each case.
`NCc1noc(-c2cccc(Br)c2)n1`: the IC50 in assay [1] was 127 µM; in assay [2], more than 501 µM.
`C[C@@H](CO)Nc1ncc(Cl)cc1Br`: the IC50 was 291 µM in assay [1] and more than 501 µM in assay [2].
For `CCc1cc(CNC(=O)c2ccc(F)c(F)c2)[nH]n1`, in that order: 175 µM and 102 µM.
In the same order, the values of `COc1c(Cl)cc(NC(=O)C2COCCN2)cc1Cl` (stereo not given) are 200 µM and more than 501 µM.
Consider `CN(C)S(=O)(=O)NCC(O)c1ccc(Cl)c(F)c1` (stereo not given), for which the IC50 is 131 µM in assay [1] and more than 501 µM in assay [2].
For `CCc1ccc(C(=O)NC(C)c2cccnc2)o1` (stereo not given), in that order: more than 501 µM and more than 501 µM.
In the same order, the values of `CCCc1ccc(S(=O)(=O)N2CCNCC2)cc1` are 299 µM and more than 501 µM.
As to `Cc1ccc(C(N)CN2CCOCC2)cc1` (stereo not given), the IC50 in assay [1] was 448 µM; in assay [2] it was more than 501 µM.
In the same order, the values of `COc1ccc(CNC(=O)CCC2CCCO2)cn1` (stereo not given) are 91.5 µM and more than 501 µM.
In the same order, the values of `CCN(CC1CCOC1)C(=O)c1cc(I)c[nH]1` (stereo not given) are 212 µM and more than 501 µM.
For `NCC(O)c1ccc(Cl)s1` (stereo not given), the IC50 in assay [1] is 241 µM; in assay [2], 290 µM.
For `CCN1C[C@H](NC(=O)c2ccc(Cl)s2)[C@@H](OC)C1`, in that order: 137 µM and more than 501 µM.
With `Cc1ccc(C(=O)NCc2ccnc(N(C)C)c2)s1`, the IC50 in assay [1] was 273 µM; in assay [2] it was more than 501 µM.
Turning to `Cc1cc2c(cc1S(=O)(=O)N1CCCC(N)C1)OCO2` (stereo not given), the IC50 in assay [1] was 261 µM; in assay [2] it was more than 501 µM.
For `CS(=O)(=O)N1CCC(COCc2ccccc2)C1` (stereo not given), in that order: 301 µM and 165 µM.
In the case of `Cc1cc(C(=O)NCc2ccc(F)cc2)[nH]n1`, the IC50 in assay [1] was 28 µM; in assay [2] it was 132 µM.
For `Cn1c(SCCCO)nnc1-c1ccccc1F`, in that order: 275 µM and 279 µM.
For `CN1N=C(C(=O)NCc2ccc(Cl)cc2)CCC1=O`, in that order: 26.9 µM and 38.8 µM.
For `CCn1nnnc1SCc1cc(C#N)ccc1F`, in that order: 42.7 µM and 87.5 µM.
For the molecule `Cc1nc(CNC(=O)CC2=CCCCC2)no1`, the IC50 in assay [1] and in assay [2] was more than 501 µM throughout.
Take `CSc1cccc(N(C)C(=O)C(N)c2ccccc2)c1` (stereo not given): the IC50 is 233 µM in assay [1] and more than 501 µM in assay [2].
For `CCN(CC)S(=O)(=O)CC(=O)Nc1ccc(F)c(C)c1`, in that order: 252 µM and 265 µM.
For `COC(=O)c1ccc(NCC(=O)NC(N)=O)cc1`, in that order: 85.4 µM and 58.3 µM.
`CC(Sc1nnc[nH]1)C(=O)Nc1ccc(C#N)cc1` (stereo not given): the IC50 in assay [1] and in assay [2] was more than 501 µM each time.
Turning to `Nc1nnc(SCC(=O)NCCc2cccc(Cl)c2)s1`, the IC50 in assay [1] was 287 µM; in assay [2], more than 501 µM.
For `COc1ccc(NC(=O)c2ccc(S(N)(=O)=O)o2)cc1`, in that order: more than 501 µM and more than 501 µM.
For `CC(C)OCCS(=O)(=O)N(C)Cc1ccco1`, in that order: 110 µM and 104 µM.
For `CC(c1nc(-c2ccccn2)no1)N1CCSCC1` (stereo not given), in that order: 86.8 µM and 115 µM.
Turning to `O=C(NC1CCc2ccc(F)cc21)c1c[nH]nn1` (stereo not given), the IC50 is more than 501 µM in assay [1] and 399 µM in assay [2].
In the same order, the values of `Cc1nc(-c2c[nH]c(C(=O)N3CCCC3)c2)cs1` are 241 µM and 427 µM.
In the same order, the values of `O=C(NCC(O)c1ccc(Cl)cc1)Nc1ccccn1` (stereo not given) are 106 µM and more than 501 µM.
In the same order, the values of `CCCNC(=O)c1cc(Br)c[nH]1` are more than 501 µM and more than 501 µM.
Take `CN(C)CCOc1ccccc1CN`: the IC50 in assay [1] and in assay [2] was more than 501 µM in each case.
For `CCCOc1cccc(NC(=O)C(C)n2cncn2)c1` (stereo not given), the IC50 in assay [1] was 370 µM; in assay [2], 331 µM.
In the same order, the values of `NC(=O)c1ccsc1NC(=O)CCN1CCCCC1` are 495 µM and more than 501 µM.
In the same order, the values of `CCC1(CO)CCCN(CCn2cc(Cl)cn2)C1` (stereo not given) are 138 µM and 144 µM.
In the same order, the values of `CCOc1ncccc1CNC(=O)c1[nH]ncc1Br` are more than 501 µM and more than 501 µM.
Regarding `CCCNC(=O)c1ccc2c(c1)NC(=O)C(C)S2` (stereo not given), the results for the IC50 in assay [1] and in assay [2] were 406 µM and more than 501 µM, respectively.
For the molecule `O=C(NC1=NCCS1)c1sccc1C1CC1`, the IC50 in assay [1] is 232 µM; in assay [2], 398 µM.
For `CC1CC(=O)NCCN1` (stereo not given), in that order: more than 501 µM and more than 501 µM.
Regarding `NCc1cnn(-c2ccc(Br)cc2)c1`, the IC50 in assay [1] is 147 µM; in assay [2], 196 µM.
For `COCCNc1ccc(C#N)cc1`, in that order: more than 501 µM and 280 µM.
For `CC(N)c1nc(-c2ccc3c(c2)OCO3)c[nH]1` (stereo not given), in that order: more than 501 µM and more than 501 µM.
For `CCOC(=O)c1ccc(N2CCC(CCO)CC2)nc1`, in that order: 84 µM and 198 µM.
On to `CN(C)c1nc(-c2ccc3c(c2)CCC(=O)N3)cs1`, for which the results for the IC50 in assay [1] and in assay [2] were 120 µM and 201 µM, respectively.
For `CN(C)c1ncccc1CNS(=O)(=O)c1ccccc1`, in that order: more than 501 µM and more than 501 µM.
For `NCc1ccc(OC2CCCCC2)nc1`, the IC50 in assay [1] and in assay [2] was more than 501 µM each time.
Take `NCc1ccncc1OCc1ccccc1`: the IC50 in assay [1] was 134 µM; in assay [2], more than 501 µM.
Take `O=C1c2ccccc2OCC1CN1CCOCC1` (stereo not given): the IC50 in assay [1] is 266 µM; in assay [2], more than 501 µM.
For `NC1CCN(c2ncccc2Cl)C1` (stereo not given), in that order: 135 µM and 217 µM.
For `COCC(C)Nc1cccc(F)c1C#N` (stereo not given), in that order: more than 501 µM and more than 501 µM.
In the same order, the values of `CC(NC(=O)CSc1nnnn1C1CC1)c1cccs1` (stereo not given) are 433 µM and more than 501 µM.
With `CN(Cc1ccccc1Br)C(=O)c1nccnc1N`, the IC50 in assay [1] and in assay [2] was more than 501 µM in each case.
As for `CC(C)NC(=O)CSc1nc(C=Cc2cccs2)n[nH]1`, the IC50 was 122 µM in assay [1] and 103 µM in assay [2].
